The text below walks through data of US20090298834A1, “4-(AMINOMETHYL)CYCLOHEXANAMINE DERIVATIVES AS CALCIUM CHANNEL BLOCKERS” (priority 2008, published 2009).

The term IC50 denotes the midpoint of a concentration-inhibition curve.

Molecules are shown by their SMILES.

In assay [1] the target is T1, human α1G T-type channels (Homo sapiens, UniProt O43497).
T1 construct: expressed in transfected cells; host or cells: HEK 293
Put plainly: T-type calcium channel block, whole cell patch clamp (α1G). The assay is classed as cell-based. To be noted: HEK cells stably expressing human α1G; mainly non-inactivated protocol; values above 10 μM represented as 10 μM, values below 0.30 μM represented as 0.30 μM. Put shortly: (§1)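 Resting block was measured mainly with the non-inactivated protocol: holding potential −110 mV, 1 s step to −100 mV, then a 50 ms test pulse at −40 mV. Recordings used stably transfected human α1G or α1H HEK293 lines, with compounds perfused in external solution containing 0.1-0.01% DMSO. IC50 values (μM) above 10 μM are reported as 10 μM.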
A general note: In patch-clamp work, channel activity is measured electrically.

For assay [2], the target named is T2, human α1H T-type channels (Homo sapiens, UniProt O95180).
T2 construct: expressed in transfected cells; host or cells: HEK 293
T2 sequence (O95180 whole entry): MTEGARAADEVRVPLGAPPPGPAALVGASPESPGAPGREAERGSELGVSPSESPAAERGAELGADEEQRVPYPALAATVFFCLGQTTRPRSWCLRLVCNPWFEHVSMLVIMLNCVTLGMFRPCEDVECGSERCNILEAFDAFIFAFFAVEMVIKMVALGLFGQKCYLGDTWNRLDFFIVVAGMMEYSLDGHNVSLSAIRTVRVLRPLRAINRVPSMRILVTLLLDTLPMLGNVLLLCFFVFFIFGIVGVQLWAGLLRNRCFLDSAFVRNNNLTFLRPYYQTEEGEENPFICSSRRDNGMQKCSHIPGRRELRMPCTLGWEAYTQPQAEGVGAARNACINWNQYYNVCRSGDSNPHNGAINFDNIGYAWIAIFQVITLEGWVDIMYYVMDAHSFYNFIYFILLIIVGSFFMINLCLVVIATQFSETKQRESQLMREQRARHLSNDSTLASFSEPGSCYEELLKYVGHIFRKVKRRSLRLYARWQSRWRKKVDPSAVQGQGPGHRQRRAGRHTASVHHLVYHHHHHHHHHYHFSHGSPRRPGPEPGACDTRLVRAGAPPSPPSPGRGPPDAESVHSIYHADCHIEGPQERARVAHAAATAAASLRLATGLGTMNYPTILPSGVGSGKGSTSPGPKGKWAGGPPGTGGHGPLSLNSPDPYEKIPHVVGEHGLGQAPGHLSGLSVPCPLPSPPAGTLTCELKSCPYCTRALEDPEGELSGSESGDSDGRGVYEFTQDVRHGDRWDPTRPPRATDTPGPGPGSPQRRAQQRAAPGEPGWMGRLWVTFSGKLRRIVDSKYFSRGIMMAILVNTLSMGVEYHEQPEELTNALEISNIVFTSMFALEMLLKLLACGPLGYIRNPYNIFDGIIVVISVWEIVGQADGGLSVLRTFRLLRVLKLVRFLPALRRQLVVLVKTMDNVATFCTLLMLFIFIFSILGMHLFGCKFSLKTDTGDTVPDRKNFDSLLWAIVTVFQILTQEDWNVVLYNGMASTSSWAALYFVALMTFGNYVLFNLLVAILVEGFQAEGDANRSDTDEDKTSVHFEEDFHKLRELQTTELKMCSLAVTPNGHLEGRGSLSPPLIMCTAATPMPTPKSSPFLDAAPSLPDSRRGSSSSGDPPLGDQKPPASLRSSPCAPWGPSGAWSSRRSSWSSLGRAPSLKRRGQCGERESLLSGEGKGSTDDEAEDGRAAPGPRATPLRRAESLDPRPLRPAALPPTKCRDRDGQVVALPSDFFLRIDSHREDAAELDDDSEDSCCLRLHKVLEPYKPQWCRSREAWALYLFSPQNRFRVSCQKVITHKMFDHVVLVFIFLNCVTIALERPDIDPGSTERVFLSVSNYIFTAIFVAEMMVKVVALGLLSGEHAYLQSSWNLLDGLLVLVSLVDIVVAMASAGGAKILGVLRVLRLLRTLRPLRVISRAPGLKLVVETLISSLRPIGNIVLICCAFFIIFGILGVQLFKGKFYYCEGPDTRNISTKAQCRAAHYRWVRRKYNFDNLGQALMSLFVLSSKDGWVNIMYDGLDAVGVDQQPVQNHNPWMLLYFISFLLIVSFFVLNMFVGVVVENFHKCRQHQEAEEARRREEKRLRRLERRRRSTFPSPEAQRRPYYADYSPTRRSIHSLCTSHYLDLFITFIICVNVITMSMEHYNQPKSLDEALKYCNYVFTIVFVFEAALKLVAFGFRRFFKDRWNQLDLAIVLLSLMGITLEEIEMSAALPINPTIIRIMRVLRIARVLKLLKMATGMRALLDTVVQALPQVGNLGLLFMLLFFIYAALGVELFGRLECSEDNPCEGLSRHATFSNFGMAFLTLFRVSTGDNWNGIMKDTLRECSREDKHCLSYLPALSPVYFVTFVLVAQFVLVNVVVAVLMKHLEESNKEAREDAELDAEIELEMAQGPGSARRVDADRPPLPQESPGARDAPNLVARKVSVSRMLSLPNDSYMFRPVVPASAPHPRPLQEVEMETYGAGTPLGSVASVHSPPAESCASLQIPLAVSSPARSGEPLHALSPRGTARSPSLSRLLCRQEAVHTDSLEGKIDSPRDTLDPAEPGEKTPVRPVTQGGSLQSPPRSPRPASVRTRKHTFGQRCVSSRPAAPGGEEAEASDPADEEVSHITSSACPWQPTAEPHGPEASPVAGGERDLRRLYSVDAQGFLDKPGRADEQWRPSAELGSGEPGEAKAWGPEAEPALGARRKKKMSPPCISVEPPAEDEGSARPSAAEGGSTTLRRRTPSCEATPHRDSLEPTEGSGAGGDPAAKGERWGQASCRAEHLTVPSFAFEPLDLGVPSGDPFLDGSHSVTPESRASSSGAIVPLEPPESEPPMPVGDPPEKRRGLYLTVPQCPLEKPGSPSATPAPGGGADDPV
The assay is described as follows: T-type calcium channel block, whole cell patch clamp (α1H). The note with it: HEK cells stably expressing human α1H; mainly non-inactivated protocol; values above 10 μM represented as 10 μM. It is filed as cell-based. The method, boiled down:
as §1

T1 sequence (O43497 whole entry): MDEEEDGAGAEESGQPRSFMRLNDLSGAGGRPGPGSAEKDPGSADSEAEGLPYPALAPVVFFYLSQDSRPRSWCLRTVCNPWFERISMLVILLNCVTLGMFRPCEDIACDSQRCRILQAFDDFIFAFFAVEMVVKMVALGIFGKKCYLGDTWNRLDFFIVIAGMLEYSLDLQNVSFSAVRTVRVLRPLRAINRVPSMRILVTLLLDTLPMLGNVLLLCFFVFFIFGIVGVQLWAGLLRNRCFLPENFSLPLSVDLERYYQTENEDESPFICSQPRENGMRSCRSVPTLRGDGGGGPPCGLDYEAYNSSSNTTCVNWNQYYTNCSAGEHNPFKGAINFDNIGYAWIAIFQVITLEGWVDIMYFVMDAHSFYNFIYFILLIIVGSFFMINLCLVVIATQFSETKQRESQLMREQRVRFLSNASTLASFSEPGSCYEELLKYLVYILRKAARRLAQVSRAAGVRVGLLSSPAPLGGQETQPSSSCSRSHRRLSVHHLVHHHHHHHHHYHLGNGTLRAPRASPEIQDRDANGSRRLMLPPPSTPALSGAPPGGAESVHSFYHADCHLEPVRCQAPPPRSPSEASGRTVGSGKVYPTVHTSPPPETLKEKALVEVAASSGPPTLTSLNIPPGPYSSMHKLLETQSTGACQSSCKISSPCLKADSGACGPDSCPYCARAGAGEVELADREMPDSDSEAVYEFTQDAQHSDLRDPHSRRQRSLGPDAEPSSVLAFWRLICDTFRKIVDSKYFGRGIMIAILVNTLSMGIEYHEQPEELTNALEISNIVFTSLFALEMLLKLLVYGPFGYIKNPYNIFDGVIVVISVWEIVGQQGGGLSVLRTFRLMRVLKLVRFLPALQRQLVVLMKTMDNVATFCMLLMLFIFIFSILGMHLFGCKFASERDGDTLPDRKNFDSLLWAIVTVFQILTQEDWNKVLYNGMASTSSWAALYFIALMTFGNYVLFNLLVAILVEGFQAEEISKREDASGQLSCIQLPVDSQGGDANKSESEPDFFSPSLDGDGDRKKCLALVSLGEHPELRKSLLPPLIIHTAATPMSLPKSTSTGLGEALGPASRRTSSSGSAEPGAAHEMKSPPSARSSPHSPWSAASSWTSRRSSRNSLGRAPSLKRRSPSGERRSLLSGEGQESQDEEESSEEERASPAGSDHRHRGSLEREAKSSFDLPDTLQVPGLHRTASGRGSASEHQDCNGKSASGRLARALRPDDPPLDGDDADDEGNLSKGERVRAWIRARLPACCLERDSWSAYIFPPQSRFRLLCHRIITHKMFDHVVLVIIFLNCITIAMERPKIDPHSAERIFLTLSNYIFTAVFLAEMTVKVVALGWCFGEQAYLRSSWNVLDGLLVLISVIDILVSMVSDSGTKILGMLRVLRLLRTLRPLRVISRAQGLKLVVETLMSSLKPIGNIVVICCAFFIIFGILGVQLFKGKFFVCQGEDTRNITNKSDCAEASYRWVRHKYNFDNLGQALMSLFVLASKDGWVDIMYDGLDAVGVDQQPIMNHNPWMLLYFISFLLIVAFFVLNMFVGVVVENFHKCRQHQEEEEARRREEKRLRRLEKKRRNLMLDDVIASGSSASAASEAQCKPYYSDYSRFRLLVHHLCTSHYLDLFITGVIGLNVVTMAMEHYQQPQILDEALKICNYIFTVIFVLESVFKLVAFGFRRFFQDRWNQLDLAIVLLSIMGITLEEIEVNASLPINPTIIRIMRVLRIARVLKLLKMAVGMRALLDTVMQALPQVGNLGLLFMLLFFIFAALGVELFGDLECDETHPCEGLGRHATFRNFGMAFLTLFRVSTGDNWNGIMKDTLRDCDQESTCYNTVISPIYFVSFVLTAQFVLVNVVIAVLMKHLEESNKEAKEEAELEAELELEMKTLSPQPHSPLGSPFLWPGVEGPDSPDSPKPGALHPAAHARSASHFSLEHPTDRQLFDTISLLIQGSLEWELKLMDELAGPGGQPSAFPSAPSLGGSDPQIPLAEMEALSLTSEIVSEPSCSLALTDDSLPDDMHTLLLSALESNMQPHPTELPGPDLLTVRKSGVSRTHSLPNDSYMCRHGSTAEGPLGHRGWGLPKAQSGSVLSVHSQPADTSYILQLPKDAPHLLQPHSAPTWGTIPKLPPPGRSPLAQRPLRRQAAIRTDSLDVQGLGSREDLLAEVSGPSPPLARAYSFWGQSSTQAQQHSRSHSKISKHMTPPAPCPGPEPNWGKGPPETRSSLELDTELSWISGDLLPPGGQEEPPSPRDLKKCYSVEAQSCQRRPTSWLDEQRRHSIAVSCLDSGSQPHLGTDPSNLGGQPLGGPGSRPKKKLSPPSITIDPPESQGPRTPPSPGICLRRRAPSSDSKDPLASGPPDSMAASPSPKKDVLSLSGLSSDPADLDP

For the compound `CC(C)(C)NC(=O)CN[C@H]1CC[C@@H](CNC(=O)c2cccc(Cl)c2)CC1` [Compound 179, N-(((1s,4s)-4-(2-(tert-butylamino)-2-oxoethylamino)cyclohexyl)methyl)-3-chlorobenzamide], the IC50 was 2920 nM in assay [1] and 1320 nM in assay [2].

Consider `O=C(CNC[C@H]1CC[C@H](NC(=O)c2cc(C(F)(F)F)cc(C(F)(F)F)c2)CC1)NCC(F)(F)F` [Compound 82, N-(trans-4-((2-oxo-2-(2,2,2-trifluoroethylamino)ethylamino)methyl)cyclohexyl)-3,5-bis(trifluoromethyl)benzamide], for which the IC50 in assay [1] is 2540 nM; in assay [2], 2090 nM.

Turning to `O=C(NC[C@H]1CC[C@H](NCc2c(F)cccc2Cl)CC1)c1cc(C(F)(F)F)cc(C(F)(F)F)c1` [Compound 34, N-((trans-4-(2-chloro-6-fluorobenzylamino)cyclohexyl)methyl)-3,5-bis(trifluoromethyl)benzamide], the IC50 in assay [1] is not above 300 nM; in assay [2], 1970 nM.

As to `CC(C)CNC(=O)CNC[C@H]1CC[C@H](NC(=O)c2cc(C(F)(F)F)cc(C(F)(F)F)c2)CC1` [Compound 93, N-(trans-4-((2-(isobutylamino)-2-oxoethylamino)methyl)cyclohexyl)-3,5-bis(trifluoromethyl)benzamide], the figures for the IC50 in assay [1] and in assay [2] were 1380 nM and 1710 nM, respectively.

Consider `O=C(NC[C@H]1CC[C@@H](NCc2c(F)cccc2Cl)CC1)c1cc(F)cc(C(F)(F)F)c1` [Compound 23, N-((cis-4-(2-chloro-6-fluorobenzylamino)cyclohexyl)methyl)-3-fluoro-5-(trifluoromethyl)benzamide], for which the IC50 in assay [1] stood at 910 nM; in assay [2] it was 2870 nM.

Take `O=C(C[C@H]1CC[C@H](NC(=O)[C@@H]2CCCN2)CC1)Nc1cc(C(F)(F)F)cc(C(F)(F)F)c1` [Compound 119, (S)-N-(trans-4-(2-(3,5-bis(trifluoromethyl)phenylamino)-2-oxoethyl)cyclohexyl)pyrrolidine-2-carboxamide]: the 50% inhibitory concentration (IC50) in assay [1] stood at 880 nM; in assay [2], 1530 nM.

Take `CC(C)(C)CC(=O)NCCN[C@H]1CC[C@H](CNC(=O)c2cc(C(F)(F)F)cc(C(F)(F)F)c2)CC1` [Compound 101, N-((trans-4-(2-(3,3-dimethylbutanamido)ethylamino)cyclohexyl)methyl)-3,5-bis(trifluoromethyl)benzamide]: the half-inhibitory concentration (IC50) in assay [1] came out at 1510 nM; in assay [2], 2050 nM.

For `CC(C)(C)OC(=O)NCCN[C@H]1CC[C@@H](CNC(=O)c2cc(F)cc(C(F)(F)F)c2)CC1` [Compound 97, tert-butyl 2-(cis-4-((3-fluoro-5-(trifluoromethyl)benzamido)methyl)cyclohexylamino)ethylcarbamate], the 50% inhibitory concentration (IC50) in assay [1] and in assay [2] was 900 nM throughout.

With `CN(C(=O)CN[C@H]1CC[C@H](CNC(=O)c2cc(F)cc(Cl)c2)CC1)C(C)(C)C` [Compound 205, N-(((1r,4r)-4-(2-(tert-butyl(methyl)amino)-2-oxoethylamino)cyclohexyl)methyl)-3-chloro-5-fluorobenzamide], the IC50 is 2020 nM in assay [1] and 1100 nM in assay [2].

For the compound `C#CC(CC)(CC)NC(=O)CN[C@H]1CC[C@H](CNC(=O)c2cc(C(F)(F)F)cc(C(F)(F)F)c2)CC1` [Compound 62, N-((trans-4-(2-(3-ethylpent-1-yn-3-ylamino)-2-oxoethylamino)cyclohexyl)methyl)-3,5-bis(trifluoromethyl)benzamide], the values for the half-maximal inhibitory concentration (IC50) in assay [1] and in assay [2] were not above 300 nM and 310 nM, respectively.

Take `CC1(C)CCCN1C(=O)CN[C@H]1CC[C@@H](CNC(=O)c2cc(F)cc(Cl)c2)CC1` [Compound 195, 3-chloro-N-(((1s,4s)-4-(2-(2,2-dimethylpyrrolidin-1-yl)-2-oxoethylamino)cyclohexyl)methyl)-5-fluorobenzamide]: the values for the IC50 in assay [1] and in assay [2] were 1100 nM and 170 nM, respectively.

On to `Cc1cc(CN[C@H]2CC[C@H](CNC(=O)c3cc(C(F)(F)F)cc(C(F)(F)F)c3)CC2)no1` [Compound 67, N-((trans-4-((5-methylisoxazol-3-yl)methylamino)cyclohexyl)methyl)-3,5-bis(trifluoromethyl)benzamide], for which the 50% inhibitory concentration (IC50) in assay [1] is 5590 nM; in assay [2], 2890 nM.

For `COc1cc(C(=O)NC[C@H]2CC[C@@H](NCCNC(=O)OC(C)(C)C)CC2)cc(C(F)(F)F)c1` [Compound 100, tert-butyl 2-(cis-4-((3-methoxy-5-(trifluoromethyl)benzamido)methyl)cyclohexylamino)ethylcarbamate], the IC50 was 1030 nM in assay [1] and 850 nM in assay [2].

On to `CC(C)(C)NC(=O)CN[C@H]1CC[C@@H](CNC(=O)c2cc(Cl)cc(Cl)c2)CC1` [Compound 187, N-(((1s,4s)-4-(2-(tert-butylamino)-2-oxoethylamino)cyclohexyl)methyl)-3,5-dichlorobenzamide], for which the figures for the IC50 in assay [1] and in assay [2] were not above 300 nM and 60 nM, respectively.

For `COc1ccccc1CN[C@H]1CC[C@@H](CNC(=O)c2cc(F)cc(C(F)(F)F)c2)CC1` [Compound 19, 3-fluoro-N-((cis-4-(2-methoxybenzylamino)cyclohexyl)methyl)-5-(trifluoromethyl)benzamide], the results for the concentration for half-maximal inhibition (IC50) in assay [1] and in assay [2] were 530 nM and 1010 nM, respectively.

On to `Cc1ccc(-c2csc(NC(=O)C[C@H]3CC[C@@H](NCC(O)(C(F)(F)F)C(F)(F)F)CC3)n2)cc1` [Compound 152, N-(4-p-tolylthiazol-2-yl)-2-(cis-4-(3,3,3-trifluoro-2-hydroxy-2-(trifluoromethyl)propylamino)cyclohexyl)acetamide], for which the figures for the IC50 in assay [1] and in assay [2] were not above 300 nM and not below 10000 nM, respectively.

Take `CC(C)(C)NC(=O)CN[C@H]1CC[C@@H](CNC(=O)c2cccc(C(F)(F)F)c2)CC1` [Compound 182, N-(((1s,4s)-4-(2-(tert-butylamino)-2-oxoethylamino)cyclohexyl)methyl)-3-(trifluoromethyl)benzamide]: the IC50 in assay [1] was found to be 2370 nM; in assay [2], 3420 nM.

Take `COc1cc(F)cc(C(=O)NC[C@H]2CC[C@@H](NCC(=O)NC3(C)CCC3)CC2)c1` [Compound 197, 3-fluoro-5-methoxy-N-(((1s,4s)-4-(2-(1-methylcyclobutylamino)-2-oxoethylamino)cyclohexyl)methyl)benzamide]: the half-maximal inhibitory concentration (IC50) in assay [1] stood at 1940 nM; in assay [2], 260 nM.

Regarding `O=C(NC[C@H]1CC[C@H](NC(=O)[C@H]2CC[C@@H](c3ccccc3)N2)CC1)c1cc(C(F)(F)F)cc(C(F)(F)F)c1` [Compound 137, (2R,5S)-N-(trans-4-((3,5-bis(trifluoromethyl)benzamido)methyl)cyclohexyl)-5-phenylpyrrolidine-2-carboxamide], the results for the IC50 in assay [1] and in assay [2] were 700 nM and 7850 nM, respectively.

As to `CCC1CCCN1C(=O)CN[C@H]1CC[C@H](CNC(=O)c2cc(C(F)(F)F)cc(C(F)(F)F)c2)CC1` (stereo partly drawn) [Compound 68, N-((trans-4-(2-(2-ethylpyrrolidin-1-yl)-2-oxoethylamino)cyclohexyl)methyl)-3,5-bis(trifluoromethyl)benzamide], the results for the concentration for half-maximal inhibition (IC50) in assay [1] and in assay [2] were not above 300 nM and 560 nM, respectively.

For the compound `CC1(NC(=O)CN[C@H]2CC[C@H](CNC(=O)c3cc(Cl)cc(Cl)c3)CC2)CCC1` [Compound 192, 3,5-dichloro-N-(((1r,4r)-4-(2-(1-methylcyclobutylamino)-2-oxoethylamino)cyclohexyl)methyl)benzamide], the 50% inhibitory concentration (IC50) amounted to 340 nM in assay [1] and 120 nM in assay [2].

Turning to `CC(C)(C)[C@H](O)C(=O)NC1CCC(CC(=O)Nc2cc(C(F)(F)F)cc(C(F)(F)F)c2)CC1` (stereo in doubt) [Compound 108, (S)-N-((trans)-4-(2-(3,5-bis(trifluoromethyl)phenylamino)-2-oxoethyl)cyclohexyl)-2-hydroxy-3,3-dimethylbutanamide], the IC50 in assay [1] was 450 nM; in assay [2], 1530 nM.

With `Cc1ccc(NC(=O)CN[C@H]2CC[C@H](CNC(=O)c3cc(C(F)(F)F)cc(C(F)(F)F)c3)CC2)nc1` [Compound 77, N-((trans-4-(2-(5-methylpyridin-2-ylamino)-2-oxoethylamino)cyclohexyl)methyl)-3,5-bis(trifluoromethyl)benzamide], the IC50 in assay [1] turned out to be 730 nM; in assay [2], 1140 nM.

Consider `C#CC(CC)(CC)NC(=O)CN[C@H]1CC[C@@H](CNC(=O)c2cc(C(F)(F)F)cc(C(F)(F)F)c2)CC1` [Compound 47, N-((cis-4-(2-(3-ethylpent-1-yn-3-ylamino)-2-oxoethylamino)cyclohexyl)methyl)-3,5-bis(trifluoromethyl)benzamide], for which the IC50 in assay [1] was not above 300 nM; in assay [2], 10 nM.

For `O=C(NC[C@H]1CC[C@H](NCc2ccccc2O)CC1)c1cc(C(F)(F)F)cc(C(F)(F)F)c1` [Compound 25, N-((trans-4-(2-hydroxybenzylamino)cyclohexyl)methyl)-3,5-bis(trifluoromethyl)benzamide], the IC50 in assay [1] was not above 300 nM; in assay [2], 2450 nM.

Take `O=C(NC[C@H]1CC[C@H](NC(=O)[C@@H]2CC[C@H](c3ccccc3)N2)CC1)c1cc(C(F)(F)F)cc(C(F)(F)F)c1` [Compound 135, (2S,5R)-N-(trans-4-((3,5-bis(trifluoromethyl)benzamido)methyl)cyclohexyl)-5-phenylpyrrolidine-2-carboxamide]: the results for the 50% inhibitory concentration (IC50) in assay [1] and in assay [2] were 1110 nM and 5650 nM, respectively.

As for `CC(C)(C)NC(=O)CN[C@H]1CC[C@H](CNC(=O)c2cc(Cl)cc(Cl)c2)CC1` [Compound 191, N-(((1r,4r)-4-(2-(tert-butylamino)-2-oxoethylamino)cyclohexyl)methyl)-3,5-dichlorobenzamide], the half-maximal inhibitory concentration (IC50) in assay [1] was 530 nM; in assay [2], 180 nM.
